Assay results taken from patent US20060069132A1, “Azolecarboxamide herbicides” (priority 2004, published 2006).

Assays:
annual blugrass = assay: Test F pre-/postemergence herbicide test; type: in vivo, Poa annua
Text: (§1) Seeds of plant species selected from annual blugrass (Poa annua L.), blackgrass (Alopecurus myosuroides Huds.), catchweed bedstraw (Gallium aparine L.), common chickweed (Stellaria media (L.) Vill./Cyr.), downy bromegrass (Bromus tectorum L.), green foxtail (Setaria viridis (L.) Beauv.), Italian ryegrass (Lolium multiflorum Lam.), kochia (Kochia scoparia (L.). Schrad.), lambsquarters (Chenopodium album L.), littleseed canarygrass (Phalaris minor Retz.), pigweed (Amaranthus retroflexus L.), Russian thistle (Salsola kali L. ssp. Ruthenica (Iljin) Soo), wild buckwheat (Polygonum convolvulus L.), wild mustard (Sinapis arvensis L.), wild oat (Avena fatua L.), windgrass (Apera spica-venti (L.) Beauv.), winter barley (Hordeum vulgare L.), and wheat (Triticum aestivum L.) were planted and treated preemergence with test chemicals formulated in a non-phytotoxic solvent mixture which included a surfactant.
(§2) At the same time, plants selected from these crop and weed species were treated with postemergence applications of some of the test chemicals formulated in the same manner. Plants ranged in height from 2 to 18 cm (1- to 4-leaf stage) for postemergence treatments. Treated plants and controls were maintained in a greenhouse for 12 to 14 days, after which time all species were compared to controls and visually evaluated. Plant response ratings, summarized in Table F, are based on a scale of 0 to 100 where 0 is no effect and 100 is complete control. A dash (-) response means no test result.

catchweed bedstraw = assay: Test F pre-/postemergence herbicide test; type: in vivo, Gallium aparine
Text: as §1, §2

common chickweed = assay: Test F pre-/postemergence herbicide test; type: in vivo, Stellaria media
Text: as §1, §2

downy bromegrass = assay: Test F pre-/postemergence herbicide test; type: in vivo, Bromus tectorum
Text: as §1, §2

green foxtail = assay: Test F pre-/postemergence herbicide test; type: in vivo, Setaria viridis
Text: as §1, §2

Italian ryegrass = assay: Test F pre-/postemergence herbicide test; type: in vivo, Lolium multiflorum
Text: as §1, §2

pigweed = assay: Test F pre-/postemergence herbicide test; type: in vivo, Amaranthus retroflexus
Text: as §1, §2

wild mustard = assay: Test F pre-/postemergence herbicide test; type: in vivo, Sinapis arvensis
Text: as §1, §2

wild oat = assay: Test F pre-/postemergence herbicide test; type: in vivo, Avena fatua
Text: as §1, §2

winter barley = assay: Test F pre-/postemergence herbicide test; type: in vivo, Hordeum vulgare
Text: as §1, §2

wheat cv. Retical = assay: Test H safening on wheat by naphthalic anhydride seed treatment, pre-/postemergence; type: in vivo, Triticum aestivum; parameters: key to Response of wheat, Without naphthalic anhydride seed treatment: 0 = no effect, 100 = complete plant death, vs untreated control
Procedure: This test evaluated the safening of compounds of the invention on wheat (Triticum aestivumL.) cv. ‘Retical’ by seed treatment with naphthalic anhydride. Some of the wheat seed was treated with napthalic anhydride as a 1% by weight seed dressing. The wheat seed were planted in pots containing pasteurized Sassafras sandy loam soil. For postemergence testing the plants were grown 8 days to the 2-leaf stage at time of treatment. Preemergence treatments were applied the same day that the seeds were planted. Treatments were applied by spraying the test compounds formulated in a non-phytotoxic solvent mixture, using a flat fan nozzle and a spray volume of 280 L/ha. The preemergence treatments were triply replicated and the results subsequently averaged. The pots were placed on a growth chamber bench using a complete randomized block design for the preemergence test except for the first replicate, which was unrandomized. The plants were grown in the growth chamber and watered as needed with a dilute nutrient solution containing 200 ppm of N. Illumination was provided by fluorescent lamps giving 200-300 μE/m^2/S of photosynthetically active radiation over a 14-hour photoperiod. The temperature was maintained at 23±2° C. during the day and 17±2° C. at night. The effects of the treatments were rated 25 days after preemergence treatment and 14 days after postemergence treatment. The plant response was visually rated in comparison to untreated controls using a scale of 0 to 100, with 0 representing no effect and 100 representing complete plant death. The results for the compounds tested preemergence are listed in Table H1, and the results for the compounds tested postemergence are listed in Table H2.

CCn1nc(C(C)(C)C)cc1C(=O)Nc1cccc(C(N)=O)n1 [Compound 162, 6-[[[3-(1,1-dimethylethyl)-1-ethyl-1H-pyrazol-5-yl]carbonyl]amino]-2-pyridinecarboxamide]
Plant response rating (0-100), Bluegrass (annual blugrass; Postemergence, 62 g ai/ha): 60
Plant response rating (0-100), Bluegrass (annual blugrass; Postemergence, 125 g ai/ha): 60
Plant response rating (0-100), Bluegrass (annual blugrass; Postemergence, 250 g ai/ha): 90
Plant response rating (0-100), Bluegrass (annual blugrass; Postemergence, 500 g ai/ha): 100
Plant response rating (0-100), Bluegrass (annual blugrass; Preemergence, 62 g ai/ha): 100
Plant response rating (0-100), Bluegrass (annual blugrass; Preemergence, 125 g ai/ha): 100
Plant response rating (0-100), Bluegrass (annual blugrass; Preemergence, 250 g ai/ha): 100
Plant response rating (0-100), Bluegrass (annual blugrass; Preemergence, 500 g ai/ha): 100
Plant response rating (0-100), Galium (catchweed bedstraw; Preemergence, 62 g ai/ha): 60
Plant response rating (0-100), Galium (catchweed bedstraw; Preemergence, 125 g ai/ha): 70
Plant response rating (0-100), Galium (catchweed bedstraw; Preemergence, 250 g ai/ha): 100
Plant response rating (0-100), Galium (catchweed bedstraw; Preemergence, 500 g ai/ha): 100
Plant response rating (0-100), Chickweed (common chickweed; Postemergence, 62 g ai/ha): 70
Plant response rating (0-100), Chickweed (common chickweed; Postemergence, 125 g ai/ha): 80
Plant response rating (0-100), Chickweed (common chickweed; Postemergence, 250 g ai/ha): 100
Plant response rating (0-100), Chickweed (common chickweed; Postemergence, 500 g ai/ha): 100
Plant response rating (0-100), Chickweed (common chickweed; Preemergence, 62 g ai/ha): 100
Plant response rating (0-100), Chickweed (common chickweed; Preemergence, 125 g ai/ha): 100
Plant response rating (0-100), Chickweed (common chickweed; Preemergence, 250 g ai/ha): 100
Plant response rating (0-100), Chickweed (common chickweed; Preemergence, 500 g ai/ha): 100
Plant response rating (0-100), Bromegrass, Downy (downy bromegrass; Postemergence, 62 g ai/ha): 50
Plant response rating (0-100), Bromegrass, Downy (downy bromegrass; Postemergence, 125 g ai/ha): 50
Plant response rating (0-100), Bromegrass, Downy (downy bromegrass; Postemergence, 250 g ai/ha): 80
Plant response rating (0-100), Bromegrass, Downy (downy bromegrass; Postemergence, 500 g ai/ha): 90
Plant response rating (0-100), Bromegrass, Downy (downy bromegrass; Preemergence, 62 g ai/ha): 70
Plant response rating (0-100), Bromegrass, Downy (downy bromegrass; Preemergence, 125 g ai/ha): 100
Plant response rating (0-100), Bromegrass, Downy (downy bromegrass; Preemergence, 250 g ai/ha): 100
Plant response rating (0-100), Bromegrass, Downy (downy bromegrass; Preemergence, 500 g ai/ha): 100
Plant response rating (0-100), Foxtail, Green (green foxtail; Postemergence, 62 g ai/ha): 50
Plant response rating (0-100), Foxtail, Green (green foxtail; Postemergence, 125 g ai/ha): 50
Plant response rating (0-100), Foxtail, Green (green foxtail; Postemergence, 250 g ai/ha): 60
Plant response rating (0-100), Foxtail, Green (green foxtail; Postemergence, 500 g ai/ha): 100
Plant response rating (0-100), Foxtail, Green (green foxtail; Preemergence, 62 g ai/ha): 70
Plant response rating (0-100), Foxtail, Green (green foxtail; Preemergence, 125 g ai/ha): 100
Plant response rating (0-100), Foxtail, Green (green foxtail; Preemergence, 250 g ai/ha): 100
Plant response rating (0-100), Foxtail, Green (green foxtail; Preemergence, 500 g ai/ha): 100
Plant response rating (0-100), Ryegrass, Italian (Italian ryegrass; Postemergence, 62 g ai/ha): 70
Plant response rating (0-100), Ryegrass, Italian (Italian ryegrass; Postemergence, 125 g ai/ha): 80
Plant response rating (0-100), Ryegrass, Italian (Italian ryegrass; Postemergence, 250 g ai/ha): 90
Plant response rating (0-100), Ryegrass, Italian (Italian ryegrass; Postemergence, 500 g ai/ha): 100
Plant response rating (0-100), Ryegrass, Italian (Italian ryegrass; Preemergence, 62 g ai/ha): 100
Plant response rating (0-100), Ryegrass, Italian (Italian ryegrass; Preemergence, 125 g ai/ha): 100
Plant response rating (0-100), Ryegrass, Italian (Italian ryegrass; Preemergence, 250 g ai/ha): 100
Plant response rating (0-100), Ryegrass, Italian (Italian ryegrass; Preemergence, 500 g ai/ha): 100
Plant response rating (0-100), Pigweed (pigweed; Postemergence, 62 g ai/ha): 70
Plant response rating (0-100), Pigweed (pigweed; Postemergence, 125 g ai/ha): 90
Plant response rating (0-100), Pigweed (pigweed; Postemergence, 250 g ai/ha): 100
Plant response rating (0-100), Pigweed (pigweed; Postemergence, 500 g ai/ha): 100
Plant response rating (0-100), Pigweed (pigweed; Preemergence, 62 g ai/ha): 90
Plant response rating (0-100), Pigweed (pigweed; Preemergence, 125 g ai/ha): 100
Plant response rating (0-100), Pigweed (pigweed; Preemergence, 250 g ai/ha): 100
Plant response rating (0-100), Pigweed (pigweed; Preemergence, 500 g ai/ha): 100
Plant response rating (0-100), Mustard, Wild (wild mustard; Postemergence, 62 g ai/ha): 60
Plant response rating (0-100), Mustard, Wild (wild mustard; Postemergence, 125 g ai/ha): 80
Plant response rating (0-100), Mustard, Wild (wild mustard; Postemergence, 250 g ai/ha): 100
Plant response rating (0-100), Mustard, Wild (wild mustard; Postemergence, 500 g ai/ha): 100
Plant response rating (0-100), Mustard, Wild (wild mustard; Preemergence, 62 g ai/ha): 80
Plant response rating (0-100), Mustard, Wild (wild mustard; Preemergence, 125 g ai/ha): 80
Plant response rating (0-100), Mustard, Wild (wild mustard; Preemergence, 250 g ai/ha): 100
Plant response rating (0-100), Mustard, Wild (wild mustard; Preemergence, 500 g ai/ha): 100
Plant response rating (0-100), Oat, Wild (wild oat; Postemergence, 62 g ai/ha): 70
Plant response rating (0-100), Oat, Wild (wild oat; Postemergence, 125 g ai/ha): 80
Plant response rating (0-100), Oat, Wild (wild oat; Postemergence, 250 g ai/ha): 100
Plant response rating (0-100), Oat, Wild (wild oat; Postemergence, 500 g ai/ha): 100
Plant response rating (0-100), Oat, Wild (wild oat; Preemergence, 62 g ai/ha): 100
Plant response rating (0-100), Oat, Wild (wild oat; Preemergence, 125 g ai/ha): 100
Plant response rating (0-100), Oat, Wild (wild oat; Preemergence, 250 g ai/ha): 100
Plant response rating (0-100), Oat, Wild (wild oat; Preemergence, 500 g ai/ha): 100
Plant response rating (0-100), Barley, Winter (winter barley; Postemergence, 62 g ai/ha): 40
Plant response rating (0-100), Barley, Winter (winter barley; Postemergence, 125 g ai/ha): 50
Plant response rating (0-100), Barley, Winter (winter barley; Postemergence, 250 g ai/ha): 80
Plant response rating (0-100), Barley, Winter (winter barley; Postemergence, 500 g ai/ha): 80
Plant response rating (0-100), Barley, Winter (winter barley; Preemergence, 62 g ai/ha): 70
Plant response rating (0-100), Barley, Winter (winter barley; Preemergence, 125 g ai/ha): 100
Plant response rating (0-100), Barley, Winter (winter barley; Preemergence, 250 g ai/ha): 100
Plant response rating (0-100), Barley, Winter (winter barley; Preemergence, 500 g ai/ha): 100
Response of wheat, With 1% naphthalic anhydride seed treatment (wheat cv. Retical; postemergence, 62 g a.i./ha): 5
Response of wheat, Without naphthalic anhydride seed treatment (wheat cv. Retical; postemergence, 62 g a.i./ha): 5
Response of wheat, With 1% naphthalic anhydride seed treatment (wheat cv. Retical; postemergence, 125 g a.i./ha): 30
Response of wheat, Without naphthalic anhydride seed treatment (wheat cv. Retical; postemergence, 125 g a.i./ha): 70
Response of wheat, With 1% naphthalic anhydride seed treatment (wheat cv. Retical; preemergence, 62 g a.i./ha): 47
Response of wheat, Without naphthalic anhydride seed treatment (wheat cv. Retical; preemergence, 62 g a.i./ha): 60
Response of wheat, With 1% naphthalic anhydride seed treatment (wheat cv. Retical; preemergence, 125 g a.i./ha): 62
Response of wheat, Without naphthalic anhydride seed treatment (wheat cv. Retical; preemergence, 125 g a.i./ha): 98
Response of wheat, With 1% naphthalic anhydride seed treatment (wheat cv. Retical; preemergence, 250 g a.i./ha): 96
Response of wheat, Without naphthalic anhydride seed treatment (wheat cv. Retical; preemergence, 250 g a.i./ha): 98

CCc1nn(C(C)(C)C)cc1C(=O)Nc1cc(C(=O)N(CC)CC)ccc1F [Compound 223]
Plant response rating (0-100), Bluegrass (annual blugrass; Postemergence, 125 g ai/ha): 50
Plant response rating (0-100), Bluegrass (annual blugrass; Preemergence, 125 g ai/ha): 100
Plant response rating (0-100), Galium (catchweed bedstraw; Postemergence, 125 g ai/ha): 60
Plant response rating (0-100), Galium (catchweed bedstraw; Preemergence, 125 g ai/ha): 50
Plant response rating (0-100), Chickweed (common chickweed; Postemergence, 125 g ai/ha): 60
Plant response rating (0-100), Chickweed (common chickweed; Preemergence, 125 g ai/ha): 100
Plant response rating (0-100), Bromegrass, Downy (downy bromegrass; Postemergence, 125 g ai/ha): 20
Plant response rating (0-100), Bromegrass, Downy (downy bromegrass; Preemergence, 125 g ai/ha): 50
Plant response rating (0-100), Foxtail, Green (green foxtail; Postemergence, 125 g ai/ha): 60
Plant response rating (0-100), Foxtail, Green (green foxtail; Preemergence, 125 g ai/ha): 55
Plant response rating (0-100), Ryegrass, Italian (Italian ryegrass; Postemergence, 125 g ai/ha): 45
Plant response rating (0-100), Ryegrass, Italian (Italian ryegrass; Preemergence, 125 g ai/ha): 65
Plant response rating (0-100), Pigweed (pigweed; Postemergence, 125 g ai/ha): 65
Plant response rating (0-100), Pigweed (pigweed; Preemergence, 125 g ai/ha): 100
Plant response rating (0-100), Mustard, Wild (wild mustard; Postemergence, 125 g ai/ha): 65
Plant response rating (0-100), Mustard, Wild (wild mustard; Preemergence, 125 g ai/ha): 100
Plant response rating (0-100), Oat, Wild (wild oat; Postemergence, 125 g ai/ha): 35
Plant response rating (0-100), Oat, Wild (wild oat; Preemergence, 125 g ai/ha): 70
Plant response rating (0-100), Barley, Winter (winter barley; Postemergence, 125 g ai/ha): 0
Plant response rating (0-100), Barley, Winter (winter barley; Preemergence, 125 g ai/ha): 25
